From US11167007B2, “FOXM1 modulators and uses thereof” (City of Hope, priority 2016, dated 2021)

Experiments:
Type in all cases: cell-based, murine
FOXM1 = test: Western blot of FOXM1 levels in GT1-7 CARY cells; conditions: relative to p84 loading control, FIG. 3C
Description: Western Blot. Cell lysates was separated on a 6% SDS page gel and transferred to a nitrocellulose membrane. The membrane was blocked for one hour in 5% skim milk dissolved in TBS-T and probed with the following antibodies ([…]): FoxM1 (rabbit, GeneTex), AR: 441 (mouse, Santa Cruz Biotechnology), β-catenin (rabbit 9562, Cell Signaling Technology), p84 (mouse, GeneTex) and actin (mouse, Santa Cruz Biotechnology). Horse radish peroxidase linked secondary antibodies were used along with ECL reagents for visualization. Western blots were quantified using Quantity One analysis software (BioRad).
It has been previously reported that thiostrepton causes decreased levels of FOXM1. Hegde et al, Nat Chem, 3(9):725-31 (2011); Gartel, Front Oncol, 3:150 (2013). […] The nuclear association between FOXM1 and β-catenin increases the transcriptional activity of both factors. Zhang et al, Cancer Cell, 20(4):427-42 (2011). β-catenin is a key AR coactivator in a variety of cells. Yang, J Biol Chem, 277(13):11336-44 (2002); Truica et al, Cancer Res, 60(17):4709-13 (2000). The inventors believed that thiostrepton could inhibit AR activity by limiting access to nuclear β-catenin via FOXM1 depletion. […] As expected, control actin protein was observed primarily in cytoplasmic fraction.

AR [1] = test: Androgen-responsive luciferase reporter assay in GT1-7 cells; conditions: GT1-7 cells, treated overnight, FIG. 2A
Method: Luciferase Reporter Assay. […] The following day, cells and drugs were distributed to 96-well plates. 24 hours later, luciferase activity was assessed by a dual luciferase assay kit (Promega) on the Tecan plate reader. Samples were run in quadruplicates and a Student's t test was performed to determine significance, where p<0.05 was considered significant.
In order to identify potential cell-type selective AR modulators, the FRET-based assay of AR conformation change was utilized. AR signaling is a complex process involving many steps in addition to ligand binding. One crucial step is the ligand-induced conformational change of AR, which brings the carboxy (C)- and amino (N)-termini of the receptor together. Full length AR with cyan fluorescent protein (CFP) or yellow fluorescent protein (YFP) fused to either end (CARY) produces a FRET signal upon AR conformation change (FIG. 1A). This produces an accurate and quantifiable read-out of AR activity. […] Cells were plated in 96 wells and treated with library compounds 24 hours prior to accessing conformational changes by FRET. […] Candidate hits were then further evaluated by dose response. […] In addition to FRET, AR transcriptional activity was also assessed in several cell lines by transfecting cells with a luciferase reporter driven by the human PSA promoter.

AR [2] = test: Androgen-responsive luciferase reporter assay in C2C12 cells; conditions: treated overnight, FIG. 2A
Description: Luciferase Reporter Assay. Cells were transfected using Lipofectamine Plus (Invitrogen) with a normalization plasmid (pRL-SV40, Promega) and an androgen responsive plasmid (MMTV-luciferase or PSA-luciferase) as described in Jones et al, ACS Chem Biol, 3(7):412-8 (2008), and, where indicated, with an shRNA plasmid targeting FOXM1 (adapted for mouse FOXM1 sequence targeting) a scrambled control shRNA plasmid, or ARQ24 or ARQ65 plasmids. Christensen et al, PLoS One, 8(1):e54556 (2013). The following day, cells and drugs were distributed to 96-well plates. 24 hours later, luciferase activity was assessed by a dual luciferase assay kit (Promega) on the Tecan plate reader. Samples were run in quadruplicates and a Student's t test was performed to determine significance, where p<0.05 was considered significant.
In order to identify potential cell-type selective AR modulators, the FRET-based assay of AR conformation change was utilized. AR signaling is a complex process involving many steps in addition to ligand binding. One crucial step is the ligand-induced conformational change of AR, which brings the carboxy (C)- and amino (N)-termini of the receptor together. Full length AR with cyan fluorescent protein (CFP) or yellow fluorescent protein (YFP) fused to either end (CARY) produces a FRET signal upon AR conformation change (FIG. 1A). This produces an accurate and quantifiable read-out of AR activity. Jones et al, ACS Chem Biol, 3(7):412-8 (2008). Because the interest was in the potential of neuron selective AR inhibitors for treatment of SBMA, the initial screen was carried out in CARY-transfected GT1-7 cells, which are a mouse model of hypothalamic neurons. Liposits et al, Endocrinology, 129(3):1575-83 (1991). Cells were plated in 96 wells and treated with library compounds 24 hours prior to accessing conformational changes by FRET. […] Candidate hits were then further evaluated by dose response. […] In addition to FRET, AR transcriptional activity was also assessed in several cell lines by transfecting cells with a luciferase reporter driven by the human PSA promoter. […]

Compound | FOXM1 levels (Western blot) (FOXM1) | inhibition of AR transcriptional activity (luciferase) (AR [1]) | inhibition of AR transcriptional activity (luciferase) (AR [2])
C[C@]12CCC(=O)C[C@@H]1CC[C@@H]1[C@@H]2CC[C@]2(C)[C@@H](O)CC[C@@H]12 [DHT, dihydrotestosterone] | increased | – | –
Nc1c(C(=O)Nc2ccc(F)cc2)sc2nc(-c3cccs3)cc(C(F)(F)F)c12 [FDI-6] | – | inhibited AR activity | not C2C12 cells
